2 compounds from article PMC12646544, “Bioremediation of acetamiprid and sulfoxaflor co-contamination by Ensifer sp. DA6 and characterization of a novel nitrile hydratase involved” (Frontiers in Microbiology, 2025) can be followed below.

Molecules are shown by their SMILES.

The assay relates to T1, Ensifer sp. DA6 NHase.
T1 construct: gene nthA; NHase gene cluster (alpha, beta, accessory) in pET28a, E. coli Rosetta (DE3), N-terminal 6xHis-tag, Ni-NTA purified; cobalt type; accessory protein not detected on SDS-PAGE; forward primer encodes MSEHHHG; alpha motif VCTLCSC; with Nitrile hydratase accessory protein
The experiment in a line: HPLC, Michaelis-Menten non-linear regression. In kind it is biochemical. The note with it: 50 mmol/L PBS pH 7.0, 45 °C, cobalt enzyme, 25-1,000 mg/L substrate. The source says:
HPLC, Michaelis-Menten non-linear regression on Ensifer sp.

As a reminder, the Km is the substrate concentration at which the rate is half of its maximum. As for `CC(c1ccc(C(F)(F)F)nc1)S(C)(=O)=NC#N` (centres unmarked) [SUL, [N-(methyloxido{1-[6-(trifluoromethyl)-3-pyridinyl]ethyl}-λ^4-sulfanylidene)cyanamide]], the Michaelis constant (Km) (30 min, stereoisomer mixture) is 7.93 mM. As for `C/C(=N\C#N)N(C)Cc1ccc(Cl)nc1` [ACE, N-[(6-chloro-3-pyridyl)methyl]-N′-cyano-N-methylacetamidine], the Km (60 min) is 8.16 mM.
